Data: patent US12275731B2, “Azaindole inhibitors of wild-type and mutant forms of LRRK2” (DANA-FARBER CANCER INSTITUTE, INC., priority 2018, dated 2025)

Tests used:
Experiment in all cases: KinomeScan profiling
Format in all cases: binding
CAMK2A = CAMK2A (Homo sapiens, UniProt Q9UQM7); conditions: read-out: % control
Summary of the method: (§1)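 Luminescence (RLU) was converted to percent of control, with DMSO set as 100% and a reference compound as 0%. Test compounds were run at 1 μM against 468 kinases. Kinases showing below 35% of control were scored as bound.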

DDR2 = biological target: T1, DDR2 (Homo sapiens, UniProt Q16832); conditions: DDR2, 1 μM; read-out: % control
T1 sequence (Q16832 22-855): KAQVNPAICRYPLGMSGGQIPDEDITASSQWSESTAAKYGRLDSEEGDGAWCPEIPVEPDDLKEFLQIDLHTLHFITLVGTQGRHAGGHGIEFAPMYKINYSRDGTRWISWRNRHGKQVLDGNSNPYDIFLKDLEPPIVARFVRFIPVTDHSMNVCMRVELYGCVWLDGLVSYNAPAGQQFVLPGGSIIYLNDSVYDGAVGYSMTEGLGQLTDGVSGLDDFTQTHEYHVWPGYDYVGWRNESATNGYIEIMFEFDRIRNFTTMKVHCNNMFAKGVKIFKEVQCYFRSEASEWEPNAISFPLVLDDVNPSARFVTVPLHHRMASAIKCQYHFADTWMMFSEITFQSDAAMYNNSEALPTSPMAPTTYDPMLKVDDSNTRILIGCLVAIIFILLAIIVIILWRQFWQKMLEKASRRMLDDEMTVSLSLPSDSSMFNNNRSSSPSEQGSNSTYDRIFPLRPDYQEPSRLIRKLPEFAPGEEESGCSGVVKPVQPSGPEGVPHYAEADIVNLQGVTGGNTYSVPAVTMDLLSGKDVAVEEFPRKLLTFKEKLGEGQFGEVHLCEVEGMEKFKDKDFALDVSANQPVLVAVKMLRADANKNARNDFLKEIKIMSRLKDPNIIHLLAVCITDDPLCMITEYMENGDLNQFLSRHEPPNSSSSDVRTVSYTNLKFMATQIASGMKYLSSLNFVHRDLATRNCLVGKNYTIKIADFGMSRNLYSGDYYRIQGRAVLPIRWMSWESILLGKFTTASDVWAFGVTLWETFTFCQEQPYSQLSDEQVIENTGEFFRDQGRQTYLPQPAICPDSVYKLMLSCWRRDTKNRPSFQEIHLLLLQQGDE
Summary of the method: as §1

NEK1 = biological target: T2, NEK1 (Homo sapiens, UniProt Q96PY6); conditions: NEK1, 1 μM; read-out: % control
T2 sequence (Q96PY6 1-1258): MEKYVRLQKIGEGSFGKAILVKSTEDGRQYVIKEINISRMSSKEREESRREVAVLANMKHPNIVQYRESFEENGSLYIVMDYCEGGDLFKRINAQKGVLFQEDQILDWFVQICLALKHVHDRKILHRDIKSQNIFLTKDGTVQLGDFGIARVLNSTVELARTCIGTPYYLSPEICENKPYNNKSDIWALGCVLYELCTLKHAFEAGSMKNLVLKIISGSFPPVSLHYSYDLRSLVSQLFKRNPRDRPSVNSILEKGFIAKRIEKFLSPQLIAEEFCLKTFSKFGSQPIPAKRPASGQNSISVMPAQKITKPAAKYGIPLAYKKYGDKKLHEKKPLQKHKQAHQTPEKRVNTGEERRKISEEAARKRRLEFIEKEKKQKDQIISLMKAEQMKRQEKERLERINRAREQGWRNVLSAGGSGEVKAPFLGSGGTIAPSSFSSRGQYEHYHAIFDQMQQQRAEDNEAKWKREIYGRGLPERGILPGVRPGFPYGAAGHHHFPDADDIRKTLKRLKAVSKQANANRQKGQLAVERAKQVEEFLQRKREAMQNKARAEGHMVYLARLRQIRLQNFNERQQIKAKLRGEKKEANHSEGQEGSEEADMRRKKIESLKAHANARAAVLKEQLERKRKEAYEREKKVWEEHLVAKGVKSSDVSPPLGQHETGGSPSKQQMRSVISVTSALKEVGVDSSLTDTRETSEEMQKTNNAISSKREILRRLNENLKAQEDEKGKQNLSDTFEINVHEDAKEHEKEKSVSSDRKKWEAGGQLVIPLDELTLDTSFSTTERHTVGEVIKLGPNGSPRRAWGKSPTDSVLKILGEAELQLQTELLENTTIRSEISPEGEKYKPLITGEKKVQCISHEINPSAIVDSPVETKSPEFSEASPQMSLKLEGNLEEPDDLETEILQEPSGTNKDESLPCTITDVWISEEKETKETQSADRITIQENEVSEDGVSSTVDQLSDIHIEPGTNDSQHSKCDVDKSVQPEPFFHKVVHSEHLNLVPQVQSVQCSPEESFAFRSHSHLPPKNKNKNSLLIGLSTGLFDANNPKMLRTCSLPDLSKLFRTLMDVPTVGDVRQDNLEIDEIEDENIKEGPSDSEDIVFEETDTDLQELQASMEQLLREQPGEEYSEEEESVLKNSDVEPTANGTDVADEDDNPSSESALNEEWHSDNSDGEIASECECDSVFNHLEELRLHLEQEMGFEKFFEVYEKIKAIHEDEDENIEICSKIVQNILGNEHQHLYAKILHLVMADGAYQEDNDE
Summary of the method: as §1

PIK3CG = biological target: T3, PIK3CG (Homo sapiens, UniProt P48736); conditions: read-out: % control
T3 construct: purchased KinomeScan® (panel service)
T3 sequence (P48736 whole entry): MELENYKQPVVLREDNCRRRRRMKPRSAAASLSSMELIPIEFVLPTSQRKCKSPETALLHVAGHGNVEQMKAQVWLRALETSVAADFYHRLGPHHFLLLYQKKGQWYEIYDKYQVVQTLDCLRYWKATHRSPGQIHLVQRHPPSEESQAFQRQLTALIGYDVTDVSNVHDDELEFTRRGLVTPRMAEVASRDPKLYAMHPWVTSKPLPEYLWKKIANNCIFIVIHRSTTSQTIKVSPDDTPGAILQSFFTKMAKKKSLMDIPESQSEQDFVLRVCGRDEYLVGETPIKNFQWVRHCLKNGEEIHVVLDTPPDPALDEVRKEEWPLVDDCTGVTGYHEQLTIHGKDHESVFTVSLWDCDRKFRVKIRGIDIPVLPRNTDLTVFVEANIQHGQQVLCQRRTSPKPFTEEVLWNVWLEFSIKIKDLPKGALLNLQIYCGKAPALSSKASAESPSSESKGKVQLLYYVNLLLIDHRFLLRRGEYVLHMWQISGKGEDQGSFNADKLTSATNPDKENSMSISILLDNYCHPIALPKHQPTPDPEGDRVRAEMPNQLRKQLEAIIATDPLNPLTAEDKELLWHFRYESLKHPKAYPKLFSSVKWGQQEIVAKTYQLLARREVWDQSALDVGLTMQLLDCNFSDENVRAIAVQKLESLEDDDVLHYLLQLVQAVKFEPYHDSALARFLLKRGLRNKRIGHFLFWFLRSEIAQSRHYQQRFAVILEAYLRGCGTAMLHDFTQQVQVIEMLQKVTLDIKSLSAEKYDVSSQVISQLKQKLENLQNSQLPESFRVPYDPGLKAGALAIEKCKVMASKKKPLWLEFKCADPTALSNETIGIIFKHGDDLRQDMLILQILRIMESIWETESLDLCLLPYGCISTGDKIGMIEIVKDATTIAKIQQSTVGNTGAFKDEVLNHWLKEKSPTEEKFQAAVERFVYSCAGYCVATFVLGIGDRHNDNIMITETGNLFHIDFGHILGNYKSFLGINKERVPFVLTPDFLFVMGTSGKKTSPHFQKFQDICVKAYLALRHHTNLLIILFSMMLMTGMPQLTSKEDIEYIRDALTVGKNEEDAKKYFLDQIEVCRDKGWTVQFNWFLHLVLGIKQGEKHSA
Summary of the method: as §1

SIK = biological target: T4, SIK (Homo sapiens, UniProt P57059); conditions: read-out: % control
T4 construct: purchased KinomeScan® (panel service)
T4 sequence (P57059 whole entry): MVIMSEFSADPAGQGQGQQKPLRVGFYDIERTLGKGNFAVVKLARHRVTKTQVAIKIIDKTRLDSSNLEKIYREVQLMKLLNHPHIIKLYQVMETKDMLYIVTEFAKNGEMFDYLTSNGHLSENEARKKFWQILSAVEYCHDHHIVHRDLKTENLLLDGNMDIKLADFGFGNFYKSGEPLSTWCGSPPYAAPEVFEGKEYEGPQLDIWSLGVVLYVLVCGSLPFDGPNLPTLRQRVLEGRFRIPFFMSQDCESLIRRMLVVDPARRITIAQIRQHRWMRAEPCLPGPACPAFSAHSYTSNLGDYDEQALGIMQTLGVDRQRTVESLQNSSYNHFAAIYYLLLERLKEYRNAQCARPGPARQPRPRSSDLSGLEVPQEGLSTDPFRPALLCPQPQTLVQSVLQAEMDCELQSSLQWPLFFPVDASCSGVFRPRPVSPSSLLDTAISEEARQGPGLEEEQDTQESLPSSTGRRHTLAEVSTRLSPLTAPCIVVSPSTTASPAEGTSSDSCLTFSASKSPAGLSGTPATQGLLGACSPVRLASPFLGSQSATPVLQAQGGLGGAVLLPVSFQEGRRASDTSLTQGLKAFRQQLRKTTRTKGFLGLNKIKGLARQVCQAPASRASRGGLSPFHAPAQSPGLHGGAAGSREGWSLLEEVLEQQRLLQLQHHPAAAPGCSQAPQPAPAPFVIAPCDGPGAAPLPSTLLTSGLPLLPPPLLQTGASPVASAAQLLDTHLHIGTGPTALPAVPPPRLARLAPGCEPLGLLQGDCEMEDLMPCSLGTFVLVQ
Summary of the method: as §1

Chain of CAMK2A (Q9UQM7 whole entry): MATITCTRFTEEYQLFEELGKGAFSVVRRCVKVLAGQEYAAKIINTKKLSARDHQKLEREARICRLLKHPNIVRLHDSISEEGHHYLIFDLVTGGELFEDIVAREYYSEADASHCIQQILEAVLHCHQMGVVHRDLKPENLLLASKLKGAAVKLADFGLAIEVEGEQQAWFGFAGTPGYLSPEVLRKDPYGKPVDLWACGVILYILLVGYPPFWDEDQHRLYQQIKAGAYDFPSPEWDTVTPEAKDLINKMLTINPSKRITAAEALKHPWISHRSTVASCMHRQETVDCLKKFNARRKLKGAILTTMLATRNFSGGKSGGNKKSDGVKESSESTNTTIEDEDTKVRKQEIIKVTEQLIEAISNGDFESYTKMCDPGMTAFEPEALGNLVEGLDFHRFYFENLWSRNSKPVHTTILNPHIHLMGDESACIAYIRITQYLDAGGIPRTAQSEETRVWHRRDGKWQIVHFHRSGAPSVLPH

Compound `CNc1c(-c2cnn([C@H]3CCN(C(C)=O)C[C@@H]3F)c2)cnc2[nH]cc(Cl)c12` [Compound 77, 1-((3S,4S)-4-(4-(3-chloro-4-(methylamino)-1H-pyrrolo[2,3-b]pyridin-5-yl)-1H-pyrazol-1-yl)-3-fluoropiperidin-1-yl)ethan-1-one] has a remaining binding at 1 µM (CAMK2A) of 100%, a remaining binding at 1 µM (DDR2) of 86% and a remaining binding at 1 µM (NEK1) of 96%. It also gave a remaining binding at 1 µM (PIK3CG) of 99% and a remaining binding at 1 µM (SIK) of 94%.

With `CNc1c(-c2ccc(C(=O)N3CCC(N4CCOCC4)CC3)cc2)cnc2[nH]cc(Cl)c12` [Compound 96, (4-(3-chloro-4-(methylamino)-1H-pyrrolo[2,3-b]pyridin-5-yl)phenyl)(4-morpholinopiperidin-1-yl)methanone] the remaining binding at 1 µM (CAMK2A) was 96%, the remaining binding at 1 µM (DDR2) was 79% and the remaining binding at 1 µM (NEK1) was 100%. For the same compound, the remaining binding at 1 µM (PIK3CG) was 100% and the remaining binding at 1 µM (SIK) was 87%.

In the case of `O=C(c1ccc(-c2cnc3[nH]cc(Cl)c3c2NC2CCCC2)cc1)N1CCC(N2CCOCC2)CC1` [Compound 101, (4-(3-chloro-4-(cyclopentylamino)-1H-pyrrolo[2,3-b]pyridin-5-yl)phenyl)(4-morpholinopiperidin-1-yl)methanone], the remaining binding at 1 µM (CAMK2A) is reported as 92%, the remaining binding at 1 µM (DDR2) is reported as 100% and the remaining binding at 1 µM (NEK1) is reported as 100%. It also gave a remaining binding at 1 µM (PIK3CG) of 95% and a remaining binding at 1 µM (SIK) of 100%.
